Experimental findings from patent publication US7084176B2, “N-arylphenylacetamide derivatives and medicinal compositions containing the same” (Dainippon Pharmaceutical Co., Ltd., priority 2001, dated 2006) are described below.

For the assay, the system named is male Std:ddY mice. Nature of the assay: Phenyl-1,4-benzoquinone-induced writhing test. The assay is classed as in vivo. The settings on record: for inhibition in vivo at 10 mg/kg / ED50: po; for inhibition in vivo at 10 mg/kg / Inhibitory percentage (%): orally administered at a dose of 10 mg/kg; for ED50 / ED50 (mg/kg po): oral administration, logit analysis; for ED50 / ED50 (mg/kg po) / Inhibitory percentage (%): writhing inhibition; for ED50: read-out: ED50 (mg/kg po). The procedure:
Phenyl-1,4-benzoquinone-induced Writhing Test Referring to the method disclosed in Proc. Soc. exp. Biol. […] For oral administration, a test compound was suspended in 0.5% tragacanth solution. […] In the control group, a physiological saline solution containing 10% Tween 80 and 10% ethanol was administered in the case of subcutaneous administration, or a 0.5% tragacanth solution was administered in the case of oral administration. The number of writhing movements in the test compound-treated group was compared with that in the control group, and the writhing inhibitory percentage was calculated therefrom and considered as an analgesic effect. Writhing inhibitory percentage (%)=[(A−B)/A]×100 In the above equation, A means the number of writhing movements in the control group, and B means the number of writhing movements in the test compound-treated group. From the writhing inhibitory percentage of the test compound, ED50 (mg/kg) was calculated by logit analysis.
(In general: An intraperitoneal irritant provokes the stretching counted in writhing tests.)

Where [1] appears, read: Mus musculus, 1 h, 60 minutes before PBQ, read-out: Inhibitory percentage (%).

`COc1cc(CC(=O)Nc2cccc(CCC3CCCCC3)c2)ccc1O` [Example 114, 4-hydroxy-3-methoxy-N-[3-(2-cyclohexylethyl)phenyl]phenylacetamide]: where the note is “Mus musculus, sc, 1 h, subcutaneously administered at a dose of 1 mg/kg, 60 minutes before PBQ, read-out: Inhibitory percentage (%)”, the inhibition in vivo at 1 mg/kg came out at 98%.

On to `COc1cc(CC(=O)Nc2cccc(-c3ccccc3C3CCCCC3)c2)ccc1OCCN` [Example 122, 4-(2-aminoethoxy)-N-[3-(2-cyclohexylphenyl)phenyl]-3-methoxyphenylacetamide], for which, under setting [1], the inhibition in vivo at 10 mg/kg worked out at 99%. For the same molecule, the ED50 (Mus musculus) was at most 1 mg/kg. Moreover, under “listed as Ex. 122”, the “ED50 (mg/kg po)” value worked out at 0.58 mg/kg.

In the case of `COc1cc(CC(=O)Nc2cccc(-c3ccccc3F)c2)ccc1OCCN` [Example 123, 4-(2-aminoethoxy)-N-[3-(2-fluorophenyl)phenyl]-3-methoxyphenylacetamide], the inhibition in vivo at 10 mg/kg under setting [1] amounted to 100%. The ED50 (Mus musculus) was at most 1 mg/kg. In addition, the “ED50 (mg/kg po)” value (listed as Ex. 123) came to 0.76 mg/kg.

For the molecule `COc1cc(CC(=O)Nc2cccc(-c3ccc(F)cc3)c2)ccc1OCCN` [Example 124, 4-(2-aminoethoxy)-N-[3-(4-fluorophenyl)phenyl]-3-methoxyphenylacetamide], the inhibition in vivo at 10 mg/kg under setting [1] came to 100%. In addition, where the note is “Mus musculus”, the ED50 is at most 1 mg/kg. Where the note is “listed as Ex. 124”, the “ED50 (mg/kg po)” value is 0.71 mg/kg.

As to `COc1cc(CC(=O)Nc2cccc(-c3ccccc3Cl)c2)ccc1OCCN` [Example 125, 4-(2-aminoethoxy)-N-[3-(2-chlorophenyl)phenyl]-3-methoxyphenylacetamide], the inhibition in vivo at 10 mg/kg under setting [1] came to 93%. Further, the ED50 (Mus musculus) is at most 1 mg/kg. Under “listed as Ex. 125”, the “ED50 (mg/kg po)” value is reported as 0.71 mg/kg.

With `COc1cc(CC(=O)Nc2cccc(-c3cccc(Cl)c3)c2)ccc1OCCN` [Example 126, 4-(2-aminoethoxy)-N-[3-(3-chlorophenyl)phenyl]-3-methoxyphenylacetamide], the inhibition in vivo at 10 mg/kg under setting [1] was determined as 89.9%. In addition, where the note is “Mus musculus”, the ED50 is 2.19 mg/kg.

In the case of `COc1cc(CC(=O)Nc2cccc(-c3cc(F)cc(F)c3)c2)ccc1OCCN` [Example 129, 4-(2-aminoethoxy)-N-[3-(3,5-difluorophenyl)phenyl]-3-methoxyphenylacetamide], under setting [1], the inhibition in vivo at 10 mg/kg was 76.9%. In addition, the ED50 (Mus musculus) is 1.89 mg/kg.

With `COc1cc(CC(=O)Nc2cccc(-c3ccccc3C)c2)ccc1OCCN` [Example 131, 4-(2-aminoethoxy)-3-methoxy-N-[3-(2-methylphenyl)phenyl]-phenylacetamide], the inhibition in vivo at 10 mg/kg under setting [1] was found to be 100%. Moreover, under “Mus musculus”, the ED50 stood at 1.1 mg/kg.

Take `COc1cc(CC(=O)Nc2cccc(-c3c(C)cc(C)cc3C)c2)ccc1OCCN` [Example 133, 4-(2-aminoethoxy)-3-methoxy-N-[3-(2,4,6-trimethylphenyl)-phenyl]phenylacetamide]: under setting [1], the inhibition in vivo at 10 mg/kg was 94%. Moreover, the ED50 (Mus musculus) was 1.28 mg/kg.

For the molecule `COc1cc(CC(=O)Nc2cccc(-c3cccc(C(C)C)c3)c2)ccc1OCCN` [Example 136, 4-(2-aminoethoxy)-N-[3-(3-isopropylphenyl)phenyl]-3-methoxyphenylacetamide], under setting [1], the inhibition in vivo at 10 mg/kg amounted to 99%. Also, the ED50 (Mus musculus) is 3.11 mg/kg.

Regarding `COc1cc(CC(=O)Nc2cccc(-c3ccc(C(F)(F)F)cc3)c2)ccc1OCCN` [Example 140, 4-(2-aminoethoxy)-3-methoxy-N-[3-(4-trifluoromethylphenyl)-phenyl]phenylacetamide], the inhibition in vivo at 10 mg/kg under setting [1] was determined as 91%. Also, for the setting “Mus musculus”, the ED50 turned out to be 2.18 mg/kg.

As to `COc1cc(CC(=O)Nc2cccc(-c3ccccc3C(F)(F)F)c2)ccc1OCCN` [Example 142, 4-(2-aminoethoxy)-3-methoxy-N-[3-(2-trifluoromethylphenyl)-phenyl]phenylacetamide], the inhibition in vivo at 10 mg/kg under setting [1] worked out at 98.9%. In addition, the ED50 (Mus musculus) turned out to be 1.19 mg/kg.

Take `COc1cc(CC(=O)Nc2cccc(-c3ccccc3-c3ccccc3)c2)ccc1OCCN` [Example 143, 4-(2-aminoethoxy)-3-methoxy-N-[3-(2-phenylphenyl)phenyl]-phenylacetamide]: the inhibition in vivo at 10 mg/kg under setting [1] came out at 73.2%. Where the note is “Mus musculus”, the ED50 was 3.72 mg/kg.

`COc1cc(CC(=O)Nc2cccc(-c3cccc(-c4ccccc4)c3)c2)ccc1OCCN` [Example 145, 4-(2-aminoethoxy)-3-methoxy-N-[3-(3-phenylphenyl)phenyl]-phenylacetamide]: the inhibition in vivo at 10 mg/kg under setting [1] amounted to 85.9%.

In the case of `COC(=O)c1cccc(-c2cccc(NC(=O)Cc3ccc(OCCN)c(OC)c3)c2)c1` [Example 146, 4-(2-aminoethoxy)-N-[3-(3-methoxycarbonylphenyl)phenyl]-3-methoxyphenylacetamide], the inhibition in vivo at 10 mg/kg under setting [1] was 76.9%. The ED50 (Mus musculus) was found to be 2.68 mg/kg.

As to `COc1cc(CC(=O)Nc2cccc(-c3cccc(OC(F)(F)F)c3)c2)ccc1OCCN` [Example 150, 4-(2-aminoethoxy)-3-methoxy-N-[3-(3-trifluoromethoxyphenyl)-phenyl]phenylacetamide], the inhibition in vivo at 10 mg/kg under setting [1] amounted to 100%. Also, for the setting “Mus musculus”, the ED50 was 1.32 mg/kg.

As for `COc1cc(CC(=O)Nc2cccc(-c3ccccc3SC)c2)ccc1OCCN` [Example 158, 4-(2-aminoethoxy)-3-methoxy-N-[3-(2-methylthiophenyl)-phenyl]phenylacetamide], the inhibition in vivo at 10 mg/kg under setting [1] was determined as 95.1%. Further, the ED50 (Mus musculus) was determined as 2.12 mg/kg.

Regarding `COc1cc(CC(=O)Nc2cccc(-c3ccsc3)c2)ccc1OCCN` [Example 161, 4-(2-aminoethoxy)-3-methoxy-N-[3-(thiophen-3-yl)phenyl]-phenylacetamide], the inhibition in vivo at 10 mg/kg under setting [1] was found to be 79.4%. The ED50 (Mus musculus) was determined as 2.79 mg/kg.

`COc1cc(CC(=O)Nc2cccc(-c3cccc4ccccc34)c2)ccc1OCCN` [Example 163, 4-(2-aminoethoxy)-3-methoxy-N-[3-(naphthalen-1-yl)phenyl]-phenylacetamide]: the inhibition in vivo at 10 mg/kg under setting [1] was 87.9%. Besides, the ED50 (Mus musculus) was 1.61 mg/kg.

For `COc1cc(CC(=O)Nc2cccc(-c3cc4ccccc4o3)c2)ccc1OCCN` [Example 166, 4-(2-aminoethoxy)-N-[3-(benzofuran-2-yl)phenyl]-3-methoxyphenylacetamide], the inhibition in vivo at 10 mg/kg under setting [1] stood at 96%. Also, the ED50 (Mus musculus) came to 2.4 mg/kg.

With `COc1cc(CC(=O)Nc2cccc(-c3cccc(C(C)(C)C)c3)c2)ccc1OCCN` [Example 169, 4-(2-aminoethoxy)-N-[3-(3-tert-butylphenyl)phenyl]-3-methoxyphenylacetamide], under setting [1], the inhibition in vivo at 10 mg/kg came out at 100%. Moreover, the ED50 (Mus musculus) worked out at 1.29 mg/kg.

Consider `COc1cc(CC(=O)Nc2cc(-c3ccccc3)ccc2F)ccc1OCCN` [Example 170, 4-(2-aminoethoxy)-N-[(2-fluoro-5-phenyl)phenyl]-3-methoxyphenylacetamide], for which the “ED50 (mg/kg po)” value was found to be 1.06 mg/kg. For the same molecule, the “Inhibitory percentage (%)” value (60 minutes before PBQ) was 87.9%.

For the molecule `COc1cc(CC(=O)Nc2cc(-c3ccccc3)cc(F)c2OC)ccc1OCCN` [Example 171, 4-(2-aminoethoxy)-N-[(2-methoxy-3-fluoro-5-phenyl)phenyl]-3-methoxyphenylacetamide], for the setting “listed as Ex. 171”, the “ED50 (mg/kg po)” value was 0.96 mg/kg. Besides, the “Inhibitory percentage (%)” value (60 minutes before PBQ) came to 94.0%.

With `COc1cc(CC(=O)Nc2cc(-c3ccccc3)ccc2C)ccc1OCCN` [Example 172, 4-(2-aminoethoxy)-N-[(2-methyl-5-phenyl)phenyl]-3-methoxyphenylacetamide], the “ED50 (mg/kg po)” value is recorded as 4.42 mg/kg. Moreover, the “Inhibitory percentage (%)” value (60 minutes before PBQ) came out at 75.9%.

Regarding `COc1cc(CC(=O)Nc2ccc(C)c(-c3ccccc3)c2)ccc1OCCN` [Example 173, 4-(2-aminoethoxy)-3-methoxy-N-[(3-phenyl-4-methyl)phenyl]-phenylacetamide], the “ED50 (mg/kg po)” value (listed as Ex. 173) stood at 0.87 mg/kg. Moreover, the “Inhibitory percentage (%)” value (60 minutes before PBQ) is listed as 100%.

For the molecule `COc1ccc(-c2ccccc2)cc1NC(=O)Cc1ccc(OCCN)c(OC)c1` [Example 177, 4-(2-aminoethoxy)-3-methoxy-N-[(2-methoxy-5-phenyl)phenyl]-phenylacetamide], the “ED50 (mg/kg po)” value is 3.41 mg/kg. For the same molecule, the “Inhibitory percentage (%)” value (60 minutes before PBQ) turned out to be 78.9%.

Turning to `COc1cc(CC(=O)Nc2cc(-c3ccccc3)cc(C(F)(F)F)c2)ccc1OCCN` [Example 178, 4-(2-aminoethoxy)-3-methoxy-N-[(3-trifluoromethyl-5-phenyl)-phenyl]phenylacetamide], the “ED50 (mg/kg po)” value worked out at 1.65 mg/kg. Moreover, the “Inhibitory percentage (%)” value (60 minutes before PBQ) is given as 100%.

As for `COc1cc(CC(=O)Nc2ccc(OC(F)(F)F)c(-c3ccccc3)c2)ccc1OCCN` [Example 179, 4-(2-aminoethoxy)-3-methoxy-N-[(3-phenyl-4-trifluoromethoxy)-phenyl]phenylacetamide], the “ED50 (mg/kg po)” value (listed as Ex. 179) turned out to be 0.95 mg/kg. Further, the “Inhibitory percentage (%)” value (60 minutes before PBQ) worked out at 100%.

In the case of `COc1cc(CC(=O)Nc2cc(-c3ccccc3)c(C)c(-c3ccccc3)c2)ccc1OCCN` [Example 181, 4-(2-aminoethoxy)-3-methoxy-N-[(4-methyl-3,5-diphenyl)-phenyl]phenylacetamide], the “ED50 (mg/kg po)” value is listed as 1.11 mg/kg. For the same molecule, the “Inhibitory percentage (%)” value (60 minutes before PBQ) turned out to be 80.9%.
